Assay results taken from PMC7618541 (Science (New York, N.Y.), 2025).

Columns and labels:
[1] = target: Nudix hydrolase 5 (NUDT5) (Homo sapiens, UniProt Q9UKK9); experiment: PROTAC degradation of endogenous NUDT5 in cells, western blot, […] h; type: cell-based
[2] = target: phosphoribosyl pyrophosphate amidotransferase (PPAT) (Homo sapiens, UniProt Q06203); experiment: GDH-coupled NADH fluorescence assay of purified PPAT; type: biochemical
Sequence of phosphoribosyl pyrophosphate amidotransferase (PPAT) (Q06203 12-517): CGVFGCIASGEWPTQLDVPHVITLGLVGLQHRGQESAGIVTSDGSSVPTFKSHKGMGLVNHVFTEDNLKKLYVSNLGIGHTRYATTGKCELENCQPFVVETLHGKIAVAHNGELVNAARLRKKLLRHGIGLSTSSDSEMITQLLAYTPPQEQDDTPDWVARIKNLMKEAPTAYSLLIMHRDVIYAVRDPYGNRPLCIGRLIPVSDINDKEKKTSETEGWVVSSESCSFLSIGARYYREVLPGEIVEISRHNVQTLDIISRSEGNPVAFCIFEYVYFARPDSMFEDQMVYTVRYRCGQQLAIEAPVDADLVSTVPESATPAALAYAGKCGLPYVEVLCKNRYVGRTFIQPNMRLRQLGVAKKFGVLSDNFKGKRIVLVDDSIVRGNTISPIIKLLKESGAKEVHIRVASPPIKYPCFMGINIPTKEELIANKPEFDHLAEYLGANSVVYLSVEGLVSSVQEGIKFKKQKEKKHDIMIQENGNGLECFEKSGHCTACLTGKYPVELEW

Row | Compound | PROTAC degradation of endogenous NUDT5 in cells, western blot, 20 h [1] [nM] | GDH-coupled NADH fluorescence assay of purified PPAT [2]
1 | Cn1c(=O)c2c(nc(N3CCN(C(=O)N4CCC(CN5CCN(c6ccc7c(c6)C(=O)N(C6CCC(=O)NC6=O)C7=O)CC5)CC4)CC3)n2Cc2nnc(-c3ccc(Cl)c(Cl)c3)o2)n(C)c1=O (centres unmarked) [dNUDT5] | 100 | 
2 | NC(=O)CC[C@H](N)C(=O)O [glutamine] |  | the first half reaction of PPAT reaction was assayed by monitoring the production of glutamate from glutamine
